Data published in ChEMBL document CHEMBL1817578, “2-({6-[(3R)-3-amino-3-methylpiperidine-1-yl]-1,3-dimethyl-2,4-dioxo-1,2,3,4-tetrahydro-5H-pyrrolo[3,2-d]pyrimidine-5-yl}methyl)-4-fluorobenzonitrile (DSR-12727): a potent, orally active dipeptidyl peptidase IV inhibitor without mechanism-based inactivation of CYP3A” (Bioorg Med Chem, 2011).

Experiments:
Dipeptidyl peptidase 4 = Dipeptidyl peptidase 4 (Homo sapiens, UniProt P27487); experiment: Inhibition of DPP4 in human plasma assessed as formation of 7-amino-4-methylcoumarin from glycyl-L-proline 4-methylcoumaryl-7-amide by fluorescence assay
Cytochrome P450 2D6 = Cytochrome P450 2D6 (Homo sapiens, UniProt P10635); experiment: Inhibition of CYP2D6; type: ADME
Cytochrome P450 1A2 = biological target: T1, Cytochrome P450 1A2 (Homo sapiens, UniProt P05177); experiment: Inhibition of CYP1A2; type: ADME
T1 sequence (P05177 whole entry): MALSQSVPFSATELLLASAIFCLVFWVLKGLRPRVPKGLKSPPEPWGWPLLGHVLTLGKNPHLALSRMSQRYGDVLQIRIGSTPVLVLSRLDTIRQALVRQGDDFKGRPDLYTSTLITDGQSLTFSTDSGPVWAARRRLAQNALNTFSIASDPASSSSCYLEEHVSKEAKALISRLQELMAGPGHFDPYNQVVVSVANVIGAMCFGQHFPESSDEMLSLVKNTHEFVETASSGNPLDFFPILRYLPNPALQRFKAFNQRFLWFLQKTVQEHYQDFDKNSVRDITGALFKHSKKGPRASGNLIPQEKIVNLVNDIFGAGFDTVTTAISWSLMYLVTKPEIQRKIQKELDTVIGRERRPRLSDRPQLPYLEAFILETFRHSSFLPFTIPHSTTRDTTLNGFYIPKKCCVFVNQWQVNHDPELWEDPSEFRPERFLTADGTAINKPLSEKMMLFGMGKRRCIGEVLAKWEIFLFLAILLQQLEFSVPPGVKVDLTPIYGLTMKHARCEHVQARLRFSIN

Cytochrome P450 3A4 = Cytochrome P450 3A4 (Homo sapiens, UniProt P08684); experiment: Inhibition of CYP3A4; type: ADME
Sequence of Cytochrome P450 3A4 (P08684 whole entry): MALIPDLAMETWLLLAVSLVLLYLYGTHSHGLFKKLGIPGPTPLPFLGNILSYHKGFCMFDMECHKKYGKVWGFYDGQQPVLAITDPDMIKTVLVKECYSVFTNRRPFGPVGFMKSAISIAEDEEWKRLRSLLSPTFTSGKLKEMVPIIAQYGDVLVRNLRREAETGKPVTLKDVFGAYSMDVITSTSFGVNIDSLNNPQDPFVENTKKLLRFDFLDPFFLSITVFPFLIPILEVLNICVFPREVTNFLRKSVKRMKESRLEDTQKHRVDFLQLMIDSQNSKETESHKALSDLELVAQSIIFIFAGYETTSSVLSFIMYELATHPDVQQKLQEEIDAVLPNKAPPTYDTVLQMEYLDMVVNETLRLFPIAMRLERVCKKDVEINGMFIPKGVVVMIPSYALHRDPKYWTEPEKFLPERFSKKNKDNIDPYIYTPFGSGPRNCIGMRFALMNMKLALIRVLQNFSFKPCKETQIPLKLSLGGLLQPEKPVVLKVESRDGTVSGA

Sequence of Dipeptidyl peptidase 4 (P27487 whole entry): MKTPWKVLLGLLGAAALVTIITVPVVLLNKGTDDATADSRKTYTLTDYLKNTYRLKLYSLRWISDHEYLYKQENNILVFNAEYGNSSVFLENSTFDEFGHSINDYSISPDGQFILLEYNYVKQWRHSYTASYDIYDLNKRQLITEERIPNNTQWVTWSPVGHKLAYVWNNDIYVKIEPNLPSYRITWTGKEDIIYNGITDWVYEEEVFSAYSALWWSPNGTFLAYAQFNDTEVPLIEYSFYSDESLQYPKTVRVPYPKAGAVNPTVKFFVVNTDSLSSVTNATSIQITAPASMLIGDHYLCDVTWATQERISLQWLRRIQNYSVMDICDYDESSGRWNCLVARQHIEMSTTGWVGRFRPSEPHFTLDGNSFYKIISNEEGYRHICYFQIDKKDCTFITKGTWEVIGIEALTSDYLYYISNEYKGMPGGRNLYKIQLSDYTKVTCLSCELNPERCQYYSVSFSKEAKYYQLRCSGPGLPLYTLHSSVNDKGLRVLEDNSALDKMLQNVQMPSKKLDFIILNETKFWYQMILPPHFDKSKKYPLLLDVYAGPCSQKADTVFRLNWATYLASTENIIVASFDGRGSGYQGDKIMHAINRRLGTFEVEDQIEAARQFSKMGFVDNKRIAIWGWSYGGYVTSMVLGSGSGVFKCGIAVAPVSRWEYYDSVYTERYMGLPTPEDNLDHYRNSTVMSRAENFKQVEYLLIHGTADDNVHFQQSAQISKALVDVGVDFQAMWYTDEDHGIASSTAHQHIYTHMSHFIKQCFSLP
Sequence of Cytochrome P450 2D6 (P10635 whole entry): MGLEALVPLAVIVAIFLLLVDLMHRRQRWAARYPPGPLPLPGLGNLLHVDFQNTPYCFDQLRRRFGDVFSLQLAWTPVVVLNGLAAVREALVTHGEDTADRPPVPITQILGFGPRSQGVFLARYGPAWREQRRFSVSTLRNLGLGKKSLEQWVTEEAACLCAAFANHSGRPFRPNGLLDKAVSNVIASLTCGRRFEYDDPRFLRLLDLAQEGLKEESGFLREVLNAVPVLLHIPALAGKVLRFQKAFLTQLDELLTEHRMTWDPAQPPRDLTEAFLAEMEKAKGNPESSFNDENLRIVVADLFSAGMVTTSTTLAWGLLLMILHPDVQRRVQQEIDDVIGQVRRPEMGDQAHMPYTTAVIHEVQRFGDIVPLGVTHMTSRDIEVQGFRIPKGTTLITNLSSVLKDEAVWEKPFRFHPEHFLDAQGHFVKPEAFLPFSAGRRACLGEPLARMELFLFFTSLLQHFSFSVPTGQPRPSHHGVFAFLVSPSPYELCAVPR

Row | IC50 (Dipeptidyl peptidase 4) | IC50 (Cytochrome P450 2D6) | IC50 (Cytochrome P450 1A2) | IC50 (Cytochrome P450 3A4) | SMILES
1 | 0.026 µM | – | – | – | CC[C@@]1(N)CCCN(c2cc3c(c(=O)n(C)c(=O)n3C)n2Cc2cc(F)ccc2C#N)C1
2 | 0.00034 µM | 7.5 µM | 14.7 µM | 1.6 µM | Cn1c(=O)c2c(cc(N3CCC[C@@H](N)C3)n2Cc2cc(F)ccc2C#N)n(C)c1=O
3 | > 1 µM | – | – | – | CC[C@]1(N)CCCN(c2cc3c(c(=O)n(C)c(=O)n3C)n2Cc2cc(F)ccc2C#N)C1
